Results reported in the supplement of paper PMC10307832.

Columns and labels:
Assay in all cases: relative viability (nuclei count vs DMSO), 5 days (fraction); higher = more cells survive
Bemcentinib + Linsitinib = compound: Nc1nc(Nc2ccc3c(c2)CC[C@@H](N2CCCC2)CC3)nn1-c1cc2c(nn1)-c1ccccc1CCC2 [Bemcentinib] + C[C@]1(O)C[C@@H](c2nc(-c3ccc4ccc(-c5ccccc5)nc4c3)c3c(N)nccn32)C1 [Linsitinib] (partner 1 µM)
Summary of the method: (§1)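 Values are medians from duplicate plates. Each reflects relative viability, defined as the nuclei count of treated wells over that of vehicle wells. Lung cancer cell lines in 1536-well plates were pin-tool dosed one day after seeding with one drug alone or with a fixed anchor-drug dose plus five library-drug doses (not always all listed) in √10 steps, then fixed, stained and imaged at 4× after 5 days.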

[1] = compound: CC1=CC=C(C=C1)C(=O)CN2C3=C(CCCC3)SC2=N [Pifithrin_alpha] + C[C@@H](Oc1cc(-c2cnn(C3CCNCC3)c2)cnc1N)c1c(Cl)ccc(F)c1Cl [Crizotinib] (partner 1 µM)
Summary of the method: as §1

Axitinib + Lapatinib = compound: CNC(=O)c1ccccc1Sc1ccc2c(/C=C/c3ccccn3)n[nH]c2c1 [Axitinib] + CS(=O)(=O)CCNCc1ccc(-c2ccc3ncnc(Nc4ccc(OCc5cccc(F)c5)c(Cl)c4)c3c2)o1 [Lapatinib] (partner 2 µM)
Summary of the method: as §1

Bemcentinib + Tozasertib = compound: Nc1nc(Nc2ccc3c(c2)CC[C@@H](N2CCCC2)CC3)nn1-c1cc2c(nn1)-c1ccccc1CCC2 [Bemcentinib] + Cc1cc(Nc2cc(N3CCN(C)CC3)nc(Sc3ccc(NC(=O)C4CC4)cc3)n2)n[nH]1 [Tozasertib] (partner 0.1 µM)
Summary of the method: as §1

| Cell Line | relative viability (Bemcentinib + Linsitinib; first compound 0.04 µM) | relative viability (Bemcentinib + Linsitinib; first compound 0.1265 µM) | relative viability (Bemcentinib + Linsitinib; first compound 0.4 µM) | relative viability (Bemcentinib + Linsitinib; first compound 1.265 µM) | relative viability (Bemcentinib + Linsitinib; first compound 4 µM) | relative viability ([1]; first compound 1 µM) | relative viability ([1]; first compound 3.162 µM) | relative viability ([1]; first compound 10 µM) | relative viability ([1]; first compound 31.62 µM) | relative viability ([1]; first compound 100 µM) | relative viability (Axitinib + Lapatinib; first compound 0.005 µM) | relative viability (Axitinib + Lapatinib; first compound 0.01581 µM) | relative viability (Axitinib + Lapatinib; first compound 0.05 µM) | relative viability (Axitinib + Lapatinib; first compound 0.1581 µM) | relative viability (Axitinib + Lapatinib; first compound 0.5 µM) | relative viability (Bemcentinib + Tozasertib; first compound 0.04 µM) | relative viability (Bemcentinib + Tozasertib; first compound 0.1265 µM) | relative viability (Bemcentinib + Tozasertib; first compound 0.4 µM) | relative viability (Bemcentinib + Tozasertib; first compound 1.265 µM) | relative viability (Bemcentinib + Tozasertib; first compound 4 µM) |
| --- | --- | --- | --- | --- | --- | --- | --- | --- | --- | --- | --- | --- | --- | --- | --- | --- | --- | --- | --- | --- |
| NCI-H2085 | 0.842 | 0.977 | 0.837 | 0.9 | 0.855 | 0.795 | 0.848 | 0.7 | 0.747 | 0.966 | 0.803 | 0.778 | 0.798 | 0.755 | 0.684 | 0.788 | 0.974 | 0.69 | 0.797 | 0.757 |
| NCI-H2087 | 0.957 | 0.975 | 1.09 | 0.891 | 1.09 | 0.95 | 0.796 | 0.818 | 0.706 | 0.895 | 1 | 1.26 | 0.947 | 0.864 | 1.2 | 0.226 | 0.251 | 0.276 | 0.28 | 0.252 |
| NCI-H2126 | 0.706 | 0.693 | 0.659 | 0.76 | 0.781 | 1.03 | 1.05 | 0.886 | 0.768 | 0.953 | 0.765 | 0.745 | 0.771 | 0.71 | 0.729 | 0.896 | 0.822 | 0.788 | 0.856 | 0.837 |
| NCI-H2228 | – | 0.627 | 0.733 | 0.585 | 1.11 | 0.3 | 0.424 | 0.432 | 0.263 | 0.376 | 1.28 | 0.959 | 1.09 | 1.29 | 1.39 | 0.182 | 0.249 | 0.216 | 0.251 | 0.271 |
| NCI-H2347 | 0.959 | 1.04 | 0.943 | 0.951 | 0.871 | 0.647 | 0.868 | 0.696 | 0.55 | 0.643 | 0.979 | 0.971 | 0.966 | 1.04 | 0.922 | 0.56 | 0.602 | 0.525 | 0.593 | 0.72 |
| NCI-H2405 | 0.874 | 0.966 | 0.965 | 0.918 | 0.896 | 0.821 | 0.815 | 0.796 | 0.741 | 0.822 | 1.09 | 1.06 | 1.34 | 1.07 | 1.02 | 0.733 | 0.783 | 0.702 | 0.74 | 0.671 |
| NCI-H3122 | 0.949 | 1.06 | 1.02 | 1.08 | 1 | 0.288 | 0.323 | 0.291 | 0.296 | 0.321 | 1.03 | 0.977 | 1.04 | 1.04 | 1.13 | – | 0.488 | 0.402 | 0.427 | 0.381 |
| PC-3 [JPC-3] | 0.967 | 0.999 | 0.902 | 0.957 | 1.07 | 0.98 | 0.998 | 0.884 | 0.814 | 0.849 | 0.483 | – | 0.453 | 0.445 | 0.447 | 0.852 | 0.927 | 0.897 | 0.941 | 0.863 |
| PC-14 | 0.982 | 1.02 | 1.06 | 1.07 | 1.08 | 0.998 | 0.827 | 0.741 | 0.699 | 0.703 | 0.294 | 0.288 | 0.402 | 0.278 | 0.332 | 0.584 | 0.706 | 0.538 | 0.645 | 0.601 |
| RERF-LC-KJ | 0.918 | 0.921 | 0.886 | 0.849 | 1 | 0.824 | 0.69 | 0.754 | 0.696 | 0.659 | 0.865 | 0.829 | 0.824 | 0.809 | 0.932 | 0.557 | 0.531 | 0.485 | 0.553 | 0.466 |
| SK-LU-1 | 1.15 | 1.42 | 1.28 | 1.02 | 1.13 | 1.01 | 1.03 | 0.951 | 0.824 | 1.02 | 0.976 | 0.951 | 0.942 | 0.835 | 1.39 | 0.342 | 0.363 | 0.283 | 0.367 | 0.335 |
| SK-MES-1 | 1.18 | 1.16 | 1.15 | 1.32 | 1.12 | 0.934 | 0.933 | 0.976 | 0.683 | 0.765 | 0.492 | 0.454 | 0.53 | 0.446 | 0.547 | 0.977 | 0.908 | 1.09 | 1.03 | 0.968 |
| SW 1573 | 0.884 | 0.753 | 0.855 | 0.966 | 0.835 | 0.789 | 0.753 | 0.857 | 0.664 | 0.656 | 1.15 | 1.09 | 1.29 | 1.06 | 1.03 | 0.18 | 0.166 | 0.174 | 0.129 | 0.194 |
| UMC-11 | 1.01 | 1.08 | 1.06 | 0.978 | 0.977 | 0.64 | 0.758 | 0.63 | 0.515 | 0.757 | 0.945 | 1.06 | 0.959 | 0.916 | 0.943 | 0.214 | 0.192 | 0.2 | 0.198 | 0.204 |
